Source: the OligoGym collection
HELM strings list units from the 5' end as sugar, base in round brackets, then linkage (d deoxyribose, r ribose, m 2'-O-methyl, p phosphodiester). Strings are as the collection lists them; they lack the last nucleoside at the 3' end of the tested compound. [moe] = 2'-O-(2-methoxyethyl) (MOE); [sp] = phosphorothioate linkage; [m5C] = 5-methylcytosine

Molecular target: SCN2A
Test: mouse, dose not given
Conditions: ASO

Substance	3 h FOB score [score 0-7]
RNA1{[moe]([m5C])[sp].[moe](T)p.[moe](A)p.[moe](T)p.[moe](T)[sp].d(T)[sp].d(T)[sp].d(A)[sp].d(T)[sp].d(A)[sp].d(A)[sp].d(A)[sp].d(T)[sp].[moe](G)p.[moe]([m5C])p.[moe]([m5C])[sp].[moe](G)}$$$$ (last 3' nucleoside missing)	0
RNA1{[moe]([m5C])[sp].[moe](T)p.[moe](G)p.[moe](G)p.[moe](A)p.d([m5C])[sp].d([m5C])[sp].d(G)[sp].d(T)[sp].d([m5C])[sp].d(T)[sp].d([m5C])[sp].d(T)[sp].d(T)[sp].d(T)[sp].[moe]([m5C])p.[moe](T)p.[moe](T)[sp].[moe](A)}$$$$ (last 3' nucleoside missing)	1
RNA1{[moe]([m5C])[sp].[moe](T)p.[moe](G)p.[moe](G)p.[moe]([m5C])p.d(T)[sp].d(A)[sp].d(T)[sp].d(A)[sp].d([m5C])[sp].d(T)[sp].d([m5C])[sp].d(A)[sp].d(T)[sp].d(T)[sp].[moe](G)p.[moe]([m5C])p.[moe](T)[sp].[moe]([m5C])}$$$$ (last 3' nucleoside missing)	0.67
RNA1{[moe]([m5C])[sp].[moe](T)p.[moe](G)p.[moe](G)p.d(A)[sp].d([m5C])[sp].d([m5C])[sp].d(G)[sp].d(T)[sp].d([m5C])[sp].d(T)[sp].d([m5C])[sp].d(T)[sp].d(T)[sp].[moe](T)p.[moe]([m5C])p.[moe](T)p.[moe](T)[sp].[moe](A)}$$$$ (last 3' nucleoside missing)	1
RNA1{[moe]([m5C])[sp].[moe](T)p.[moe](G)p.[moe](T)p.[moe](T)p.d(T)[sp].d(G)[sp].d(G)[sp].d(G)[sp].d(T)[sp].d([m5C])[sp].d(T)[sp].d([m5C])[sp].d(T)[sp].d(T)[sp].[moe](A)p.[moe](G)p.[moe]([m5C])[sp].[moe](T)}$$$$ (last 3' nucleoside missing)	2.67
RNA1{[moe]([m5C])[sp].[moe](T)p.[moe](G)p.[moe]([m5C])[sp].d(A)[sp].d(T)[sp].d(G)[sp].d(T)[sp].d(A)[sp].d(A)[sp].d([m5C])[sp].d([m5C])[sp].[moe](T)p.[moe](T)p.[moe](T)p.[moe](A)[sp].[moe](T)}$$$$ (last 3' nucleoside missing)	1
RNA1{[moe]([m5C])[sp].[moe](T)p.[moe](G)p.[moe]([m5C])p.[moe](A)[sp].d(T)[sp].d(G)[sp].d(T)[sp].d(A)[sp].d(A)[sp].d([m5C])[sp].d([m5C])[sp].d(T)[sp].[moe](T)p.[moe](T)p.[moe](A)[sp].[moe](T)}$$$$ (last 3' nucleoside missing)	0.5
RNA1{[moe]([m5C])[sp].[moe](T)p.[moe](G)p.[moe]([m5C])p.[moe](A)p.[moe](T)[sp].d(G)[sp].d(T)[sp].d(A)[sp].d(A)[sp].d([m5C])[sp].d([m5C])[sp].d(T)[sp].d(T)[sp].[moe](T)p.[moe](A)[sp].[moe](T)}$$$$ (last 3' nucleoside missing)	0
RNA1{[moe]([m5C])[sp].[moe](T)p.[moe](G)p.[moe]([m5C])p.[moe](A)p.[moe](T)p.d(G)[sp].d(T)[sp].d(A)[sp].d(A)[sp].d([m5C])[sp].d([m5C])[sp].d(T)[sp].d(T)[sp].d(T)[sp].d(A)[sp].[moe](T)p.[moe](A)[sp].[moe]([m5C])}$$$$ (last 3' nucleoside missing)	0
RNA1{[moe]([m5C])[sp].[moe](T)p.[moe](G)p.[moe]([m5C])p.[moe](A)p.d(T)[sp].d(G)[sp].d(T)[sp].d(A)[sp].d(A)[sp].d([m5C])[sp].d([m5C])[sp].d(T)[sp].d(T)[sp].d(T)[sp].[moe](A)p.[moe](T)p.[moe](A)[sp].[moe]([m5C])}$$$$ (last 3' nucleoside missing)	0
